In paper PMC12015462, “Prioritization of novel anti-infective stilbene derivatives by combining metabolomic data organization and a stringent 3R-infection model in a knowledge graph” (RSC Advances, 2025):
Read-outs that look alike come from different tables or passages of the source.

Assays:
Assay type in all cases: cell-based
Mycobacterium marinum [1] = experiment: Anti-biotic assay: M. marinum growth in broth (luminescence); settings: for activity at 0.411523 µM / activity at 1.23457 µM / activity at 3.7037 µM / activity at 11.1111 µM / activity at 33.3333 µM / activity at 100 µM: 72 h; for IC50: read-out: IC50 Mm in broth (μM)
Protocol: (§1) Since fractions were not weighed individually, the injection mass was used to calculate an average mass per fraction and thus a nominal mass concentration.
Plating bacteria and compounds or fractions was performed analogously to the infection assay described above. Bacteria growth was monitored with the Agilent BioTek H1 plate reader by recording luminescence at 32 °C.
The prepared plates were sealed and stored at 4 °C overnight. On the day of the experiment, nine 10 cm Petri dishes were infected (as described before) and grouped into three pools.

Dictyostelium discoideum = experiment: Infection assay: growth of the host amoeba D. discoideum (fluorescence) in infection; settings: for activity at 0.411523 µM / activity at 1.23457 µM / activity at 3.7037 µM / activity at 11.1111 µM / activity at 33.3333 µM / activity at 100 µM: 72 h; for IC50: read-out: IC50 Dd in infection (μM)
From the text: as §1

Mycobacterium marinum [2] = experiment: Infection assay: intracellular M. marinum growth (luminescence) in D. discoideum; settings: for activity at 0.411523 µM / activity at 1.23457 µM / activity at 3.7037 µM / activity at 11.1111 µM / activity at 33.3333 µM / activity at 100 µM: 72 h; for activity at 0.411523 µM: conc 0.411522634 uM; for activity at 1.23457 µM: conc 1.234567901 uM; for activity at 3.7037 µM: conc 3.703703704 uM; for activity at 11.1111 µM: conc 11.11111111 uM; for activity at 33.3333 µM: conc 33.33333333 uM; for activity at 100 µM: conc 100 uM; for IC50: interpolated between the two concentrations closest to residual growth 0.5, top concentration 100 μM
From the text: as §1

[3] = read-out: mean (normalised M. marinum growth, Mm in broth)
[4] = read-out: median (normalised M. marinum growth, Mm in broth)
[5] = read-out: mean normalized residual growth, Dd in infection
[6] = read-out: median normalized residual growth, Dd in infection
[7] = vehicle control set at 1, read-out: mean normalized residual growth, Mm in infection
[8] = vehicle control set at 1, read-out: median normalized residual growth, Mm in infection

Compound | activity at 0.411523 µM (Mycobacterium marinum [1]; [3]) [%] | activity at 1.23457 µM (Mycobacterium marinum [1]; [3]) [%] | activity at 3.7037 µM (Mycobacterium marinum [1]; [3]) [%] | activity at 11.1111 µM (Mycobacterium marinum [1]; [3]) [%] | activity at 33.3333 µM (Mycobacterium marinum [1]; [3]) [%] | activity at 100 µM (Mycobacterium marinum [1]; [3]) [%] | activity at 0.411523 µM (Mycobacterium marinum [1]; [4]) [%] | activity at 1.23457 µM (Mycobacterium marinum [1]; [4]) [%] | activity at 3.7037 µM (Mycobacterium marinum [1]; [4]) [%] | activity at 11.1111 µM (Mycobacterium marinum [1]; [4]) [%] | activity at 33.3333 µM (Mycobacterium marinum [1]; [4]) [%] | activity at 100 µM (Mycobacterium marinum [1]; [4]) [%] | activity at 0.411523 µM (Dictyostelium discoideum; [5]) [%] | activity at 1.23457 µM (Dictyostelium discoideum; [5]) [%] | activity at 3.7037 µM (Dictyostelium discoideum; [5]) [%] | activity at 11.1111 µM (Dictyostelium discoideum; [5]) [%] | activity at 33.3333 µM (Dictyostelium discoideum; [5]) [%] | activity at 100 µM (Dictyostelium discoideum; [5]) [%] | activity at 0.411523 µM (Dictyostelium discoideum; [6]) [%] | activity at 1.23457 µM (Dictyostelium discoideum; [6]) [%] | other results
Oc1ccc(C=Cc2cc(O)cc3c2C(c2cc(O)cc(O)c2)C(c2ccc(O)c4c2OC(c2ccc(O)cc2O)C4c2cc(O)cc(O)c2)O3)cc1 (single isomer, unassigned; (-)) [Compound 11, (−)-Gnetuhainin M] | 99 | 108 | 110 | 88.7 | 92.2 | 86.8 | 104 | 107 | 115 | 91.1 | 96.7 | 83.5 | 150 | 115 | 73.2 | 64.6 | 39.6 | 11.1 | 87.9 | 94.4 | IC50 (Mycobacterium marinum [1]): > 100 µM; activity at 3.7037 µM (Dictyostelium discoideum; [6]): 85.9%; activity at 11.1111 µM (Dictyostelium discoideum; [6]): 83%; activity at 33.3333 µM (Dictyostelium discoideum; [6]): 90.3%; activity at 100 µM (Dictyostelium discoideum; [6]): 72.8%; IC50 (Dictyostelium discoideum): > 100 µM; activity at 0.411523 µM (Mycobacterium marinum [2]; [7]): 57.2%; activity at 0.411523 µM (Mycobacterium marinum [2]; [8]): 56.8%; activity at 1.23457 µM (Mycobacterium marinum [2]; [7]): 112%; activity at 1.23457 µM (Mycobacterium marinum [2]; [8]): 106%; activity at 3.7037 µM (Mycobacterium marinum [2]; [7]): 127%; activity at 3.7037 µM (Mycobacterium marinum [2]; [8]): 128%; activity at 11.1111 µM (Mycobacterium marinum [2]; [7]): 135%; activity at 11.1111 µM (Mycobacterium marinum [2]; [8]): 123%; activity at 33.3333 µM (Mycobacterium marinum [2]; [7]): 28.9%; activity at 33.3333 µM (Mycobacterium marinum [2]; [8]): 31.3%; activity at 100 µM (Mycobacterium marinum [2]; [7]): -4.28%; activity at 100 µM (Mycobacterium marinum [2]; [8]): 14.1%; IC50 (Mycobacterium marinum [2]): 22.2 µM
Oc1ccc(/C=C/c2cc(O)c3c(c2)O[C@H](c2ccc(O)cc2O)[C@@H]3c2cc(O)cc(O)c2)cc1 (relative stereo) [Compound 2, (+)-Gnetupendin C] | 97.4 | 103 | 113 | 109 | 110 | 109 | 95.6 | 101 | 111 | 108 | 109 | 109 | 94.2 | 97.6 | 98.8 | 105 | 101 | 114 | 101 | 91.8 | IC50 (Mycobacterium marinum [1]): > 100 µM; activity at 3.7037 µM (Dictyostelium discoideum; [6]): 86%; activity at 11.1111 µM (Dictyostelium discoideum; [6]): 76.8%; activity at 33.3333 µM (Dictyostelium discoideum; [6]): 74.6%; activity at 100 µM (Dictyostelium discoideum; [6]): 83.1%; IC50 (Dictyostelium discoideum): > 100 µM; activity at 0.411523 µM (Mycobacterium marinum [2]; [7]): 112%; activity at 0.411523 µM (Mycobacterium marinum [2]; [8]): 122%; activity at 1.23457 µM (Mycobacterium marinum [2]; [7]): 145%; activity at 1.23457 µM (Mycobacterium marinum [2]; [8]): 143%; activity at 3.7037 µM (Mycobacterium marinum [2]; [7]): 154%; activity at 3.7037 µM (Mycobacterium marinum [2]; [8]): 147%; activity at 11.1111 µM (Mycobacterium marinum [2]; [7]): 167%; activity at 11.1111 µM (Mycobacterium marinum [2]; [8]): 167%; activity at 33.3333 µM (Mycobacterium marinum [2]; [7]): 109%; activity at 33.3333 µM (Mycobacterium marinum [2]; [8]): 105%; activity at 100 µM (Mycobacterium marinum [2]; [7]): 27.8%; activity at 100 µM (Mycobacterium marinum [2]; [8]): 35.5%; IC50 (Mycobacterium marinum [2]): 66.7 µM
Oc1ccc([C@@H]2Oc3cc(O)ccc3[C@H]3[C@H](c4cc(O)cc(O)c4)c4c(O)cc(O)cc4[C@H]32)cc1 [Compound 9, (−)-Gnemontanin G] | 87.4 | 93.9 | 92.7 | 81.3 | 89.2 | 92.6 | 86.6 | 96.7 | 92.3 | 78.6 | 87.9 | 91.7 | 58.2 | 70.8 | 60.4 | 64.9 | 72.5 | 103 | 95.8 | 97.6 | activity at 3.7037 µM (Dictyostelium discoideum; [6]): 99.6%; activity at 11.1111 µM (Dictyostelium discoideum; [6]): 93.8%; activity at 33.3333 µM (Dictyostelium discoideum; [6]): 91.4%; activity at 100 µM (Dictyostelium discoideum; [6]): 91.6%; IC50 (Dictyostelium discoideum): > 100 µM; activity at 0.411523 µM (Mycobacterium marinum [2]; [7]): 59%; activity at 0.411523 µM (Mycobacterium marinum [2]; [8]): 69.2%; activity at 1.23457 µM (Mycobacterium marinum [2]; [7]): 82.5%; activity at 1.23457 µM (Mycobacterium marinum [2]; [8]): 85.7%; activity at 3.7037 µM (Mycobacterium marinum [2]; [7]): 76.2%; activity at 3.7037 µM (Mycobacterium marinum [2]; [8]): 74.2%; activity at 11.1111 µM (Mycobacterium marinum [2]; [7]): 58.4%; activity at 11.1111 µM (Mycobacterium marinum [2]; [8]): 59.5%; activity at 33.3333 µM (Mycobacterium marinum [2]; [7]): 65.6%; activity at 33.3333 µM (Mycobacterium marinum [2]; [8]): 72.4%; activity at 100 µM (Mycobacterium marinum [2]; [7]): 71.9%; activity at 100 µM (Mycobacterium marinum [2]; [8]): 75.7%; IC50 (Mycobacterium marinum [2]): > 100 µM
